Data taken from patent US11713338B2, “Cyclic peptides multimers targeting α-4-β-7 integrin” (priority 2016, dated 2023).
Like-named read-outs stand apart in the source and are kept apart here.

Target: T1, integrin α4β7 (RPMI8866 human cells adhering to MAdCAM-1) (Homo sapiens, UniProt P13612+P26010)
T1 construct: RMP18866 cells, which express integrin α4β7; host or cells: RPMI8866
T1 sequence (P13612 34-1032): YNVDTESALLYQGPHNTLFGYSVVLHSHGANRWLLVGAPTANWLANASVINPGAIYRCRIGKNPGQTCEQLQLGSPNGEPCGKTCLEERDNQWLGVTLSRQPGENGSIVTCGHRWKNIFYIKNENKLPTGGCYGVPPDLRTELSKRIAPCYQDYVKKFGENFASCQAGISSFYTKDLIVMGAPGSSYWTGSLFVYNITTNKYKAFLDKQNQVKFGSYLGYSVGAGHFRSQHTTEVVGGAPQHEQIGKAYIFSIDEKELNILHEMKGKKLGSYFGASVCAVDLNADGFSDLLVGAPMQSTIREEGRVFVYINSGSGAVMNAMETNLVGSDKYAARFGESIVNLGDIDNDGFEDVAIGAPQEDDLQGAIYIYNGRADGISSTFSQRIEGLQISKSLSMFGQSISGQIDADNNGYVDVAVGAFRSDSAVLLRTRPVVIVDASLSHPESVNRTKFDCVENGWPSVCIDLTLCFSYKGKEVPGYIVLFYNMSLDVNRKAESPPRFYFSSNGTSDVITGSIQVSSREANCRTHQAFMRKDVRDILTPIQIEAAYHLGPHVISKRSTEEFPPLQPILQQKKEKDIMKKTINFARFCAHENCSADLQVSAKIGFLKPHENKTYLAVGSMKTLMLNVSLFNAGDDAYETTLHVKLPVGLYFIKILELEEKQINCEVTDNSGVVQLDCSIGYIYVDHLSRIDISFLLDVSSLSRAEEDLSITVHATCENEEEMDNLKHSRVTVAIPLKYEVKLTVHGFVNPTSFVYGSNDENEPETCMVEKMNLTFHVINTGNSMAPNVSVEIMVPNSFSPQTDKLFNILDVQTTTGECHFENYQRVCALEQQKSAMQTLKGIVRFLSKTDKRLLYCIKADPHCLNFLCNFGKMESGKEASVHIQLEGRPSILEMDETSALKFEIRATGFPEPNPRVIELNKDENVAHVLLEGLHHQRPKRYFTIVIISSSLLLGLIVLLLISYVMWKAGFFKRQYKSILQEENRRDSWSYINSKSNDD
T1 sequence (P26010 20-798): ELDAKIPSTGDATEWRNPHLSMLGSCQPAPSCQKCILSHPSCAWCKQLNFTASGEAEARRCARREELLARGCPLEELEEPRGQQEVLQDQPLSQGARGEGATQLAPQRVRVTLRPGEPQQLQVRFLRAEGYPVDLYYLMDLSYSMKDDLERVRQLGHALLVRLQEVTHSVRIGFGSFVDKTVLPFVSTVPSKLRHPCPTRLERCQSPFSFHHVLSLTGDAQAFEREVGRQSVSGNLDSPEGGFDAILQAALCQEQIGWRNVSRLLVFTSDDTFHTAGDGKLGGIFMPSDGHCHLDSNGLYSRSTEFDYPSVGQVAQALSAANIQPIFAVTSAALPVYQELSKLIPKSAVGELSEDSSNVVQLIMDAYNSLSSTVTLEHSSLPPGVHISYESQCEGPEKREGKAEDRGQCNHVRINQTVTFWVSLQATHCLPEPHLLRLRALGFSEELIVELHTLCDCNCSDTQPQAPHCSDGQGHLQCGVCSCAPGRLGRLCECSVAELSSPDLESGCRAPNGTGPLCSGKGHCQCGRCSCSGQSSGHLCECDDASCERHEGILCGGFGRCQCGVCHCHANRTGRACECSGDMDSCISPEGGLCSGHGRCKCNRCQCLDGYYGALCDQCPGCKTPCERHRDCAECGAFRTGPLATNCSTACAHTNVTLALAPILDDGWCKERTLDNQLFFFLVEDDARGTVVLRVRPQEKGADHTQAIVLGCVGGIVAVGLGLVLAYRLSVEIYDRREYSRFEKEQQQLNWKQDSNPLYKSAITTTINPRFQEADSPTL
Experiment: Integrin α4β7-MAdCAM cell adhesion assay (RPMI8866 cells)
Format: cell-based
Outline: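 RPMI8866 cells were loaded with […] calcein in PBS for 30 min at 37° C. After plate washes with PBS, fluorescence of adherent cells was read, and no-cell control wells were subtracted from each test well to build the dose response.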

[1] = RPMI8866 cells adhering to MAdCAM, read-out: RPMI8866 Adhesion α4β7/MAdCAM IC50

SMILES | IC50 [1] | IC50 (RPMI8866 cells, read-out: IC50 in the RPMI8866 cell adhesion assay)
CC(C)C[C@@H]1NC(=O)c2ccc(-c3ccc(N4CCN(C(=O)C56CC7CC(C5)CC(C(=O)N5CCN(c8ccc(-c9ccc%10cc9CNC(=O)[C@@H]9CCCN9[C@H](C(=O)NC(C)(C)C)[C@H](C)NC(=O)[C@H]([C@@H](C)O)NC(=O)[C@H](CC(=O)O)NC(=O)[C@H](CC(C)C)NC%10=O)cc8)CC5)(C7)C6)CC4)cc3)c(c2)CNC(=O)[C@@H]2CCCN2[C@H](C(=O)NC(C)(C)C)[C@H](C)NC(=O)[C@H]([C@@H](C)O)NC(=O)[C@H](CC(=O)O)NC1=O [Compound 460] | 62 nM | 
CC(C)C[C@@H]1NC(=O)c2ccc(-c3ccc(N4CCN(C(=O)C5(C(=O)N6CCN(c7ccc(-c8ccc9cc8CNC(=O)[C@@H]8CCCN8[C@H](C(=O)NC(C)(C)C)[C@H](C)NC(=O)[C@H]([C@@H](C)O)NC(=O)[C@H](CC(=O)O)NC(=O)[C@H](CC(C)C)NC9=O)cc7)CC6)Cc6ccccc6C5)CC4)cc3)c(c2)CNC(=O)[C@@H]2CCCN2[C@H](C(=O)NC(C)(C)C)[C@H](C)NC(=O)[C@H]([C@@H](C)O)NC(=O)[C@H](CC(=O)O)NC1=O [Compound 461] | 39 nM | 
CC(C)C[C@@H]1NC(=O)c2ccc(-c3ccc(N4CCN(C(=O)CCOCCOCCNC(=O)CCCCCC(=O)NCCOCCOCCC(=O)N5CCN(c6ccc(-c7ccc8cc7CNC(=O)[C@@H]7CCCN7[C@H](C(=O)NC(C)(C)C)[C@H](C)NC(=O)[C@H]([C@@H](C)O)NC(=O)[C@H](CC(=O)O)NC(=O)[C@H](CC(C)C)NC8=O)cc6)CC5)CC4)cc3)c(c2)CNC(=O)[C@@H]2CCCN2[C@H](C(=O)NC(C)(C)C)[C@H](C)NC(=O)[C@H]([C@@H](C)O)NC(=O)[C@H](CC(=O)O)NC1=O [Compound 505] | 59 nM | 
CC(C)C[C@@H]1NC(=O)C[C@H](CCCCN)N(C)C(=O)[C@H](CCCCN)NC(=O)[C@@H]2CCCN2[C@H](C(=O)NC(C)(C)C)[C@H](C)NC(=O)[C@H]([C@@H](C)O)NC(=O)[C@H](CC(=O)O)NC1=O [Compound 456] |  | 199 nM
CC(C)C[C@@H]1NC(=O)c2ccc(-c3ccc(N4CCN(C(=O)CCOCCOCCOCCOCCOCCOCCOCCOCCOCCOCCC(=O)N5CCN(c6ccc(-c7ccc8cc7CNC(=O)[C@@H]7CCCN7[C@H](C(=O)NC(C)(C)C)[C@H](C)NC(=O)[C@H]([C@@H](C)O)NC(=O)[C@H](CC(=O)O)NC(=O)[C@H](CC(C)C)NC8=O)cc6)CC5)CC4)cc3)c(c2)CNC(=O)[C@@H]2CCCN2[C@H](C(=O)NC(C)(C)C)[C@H](C)NC(=O)[C@H]([C@@H](C)O)NC(=O)[C@H](CC(=O)O)NC1=O [Compound 511] | 30 nM | 
CC(C)C[C@@H]1NC(=O)C[C@H](CCCCN)N(C)C(=O)[C@H](CCCCNC(=O)CCCCCCCCC(=O)NCCCC[C@@H]2NC(=O)[C@@H]3CCCN3[C@H](C(=O)NC(C)(C)C)[C@H](C)NC(=O)[C@H]([C@@H](C)O)NC(=O)[C@H](CC(=O)O)NC(=O)[C@H](CC(C)C)NC(=O)C[C@H](CCCCN)N(C)C2=O)NC(=O)[C@@H]2CCCN2[C@H](C(=O)NC(C)(C)C)[C@H](C)NC(=O)[C@H]([C@@H](C)O)NC(=O)[C@H](CC(=O)O)NC1=O [Compound 530] | 15 nM | 
CC(C)C[C@@H]1NC(=O)c2ccc(-c3ccc(N4CCN(C(=O)c5ccc(-c6ccc(C(=O)N7CCN(c8ccc(-c9ccc%10cc9CNC(=O)[C@@H]9CCCN9[C@H](C(=O)NC(C)(C)C)[C@H](C)NC(=O)[C@H]([C@@H](C)O)NC(=O)[C@H](CC(=O)O)NC(=O)[C@H](CC(C)C)NC%10=O)cc8)CC7)cc6)cc5)CC4)cc3)c(c2)CNC(=O)[C@@H]2CCCN2[C@H](C(=O)NC(C)(C)C)[C@H](C)NC(=O)[C@H]([C@@H](C)O)NC(=O)[C@H](CC(=O)O)NC1=O [Compound 474] | 14 nM | 
CC(C)C[C@@H]1NC(=O)c2ccc(-c3ccc(N4CCN(C(=O)[C@H](CCCCNC(=O)CCCCCC(=O)NCCCC[C@H](NC(=O)OCc5ccccc5)C(=O)N5CCN(c6ccc(-c7ccc8cc7CNC(=O)[C@@H]7CCCN7[C@H](C(=O)NC(C)(C)C)[C@H](C)NC(=O)[C@H]([C@@H](C)O)NC(=O)[C@H](CC(=O)O)NC(=O)[C@H](CC(C)C)NC8=O)cc6)CC5)NC(=O)OCc5ccccc5)CC4)cc3)c(c2)CNC(=O)[C@@H]2CCCN2[C@H](C(=O)NC(C)(C)C)[C@H](C)NC(=O)[C@H]([C@@H](C)O)NC(=O)[C@H](CC(=O)O)NC1=O [Compound 498] | 36 nM | 
CC(C)C[C@@H]1NC(=O)c2ccc(-c3ccc(N4CCN(C(=O)COCC(=O)N5CCN(c6ccc(-c7ccc8cc7CNC(=O)[C@@H]7CCCN7[C@H](C(=O)NC(C)(C)C)[C@H](C)NC(=O)[C@H]([C@@H](C)O)NC(=O)[C@H](CC(=O)O)NC(=O)[C@H](CC(C)C)NC8=O)cc6)CC5)CC4)cc3)c(c2)CNC(=O)[C@@H]2CCCN2[C@H](C(=O)NC(C)(C)C)[C@H](C)NC(=O)[C@H]([C@@H](C)O)NC(=O)[C@H](CC(=O)O)NC1=O [Compound 390] | 13 nM | 
CC(C)C[C@@H]1NC(=O)c2ccc(-c3ccc(N4CCN(C(=O)c5nccnc5C(=O)N5CCN(c6ccc(-c7ccc8cc7CNC(=O)[C@@H]7CCCN7[C@H](C(=O)NC(C)(C)C)[C@H](C)NC(=O)[C@H]([C@@H](C)O)NC(=O)[C@H](CC(=O)O)NC(=O)[C@H](CC(C)C)NC8=O)cc6)CC5)CC4)cc3)c(c2)CNC(=O)[C@@H]2CCCN2[C@H](C(=O)NC(C)(C)C)[C@H](C)NC(=O)[C@H]([C@@H](C)O)NC(=O)[C@H](CC(=O)O)NC1=O [Compound 467] | 43 nM | 
CC(C)C[C@@H]1NC(=O)c2ccc(-c3ccc(N4CCN(C(=O)c5ccc(-c6cccc(C(=O)N7CCN(c8ccc(-c9ccc%10cc9CNC(=O)[C@@H]9CCCN9[C@H](C(=O)NC(C)(C)C)[C@H](C)NC(=O)[C@H]([C@@H](C)O)NC(=O)[C@H](CC(=O)O)NC(=O)[C@H](CC(C)C)NC%10=O)cc8)CC7)n6)nc5)CC4)cc3)c(c2)CNC(=O)[C@@H]2CCCN2[C@H](C(=O)NC(C)(C)C)[C@H](C)NC(=O)[C@H]([C@@H](C)O)NC(=O)[C@H](CC(=O)O)NC1=O [Compound 466] | 97 nM | 
